The values below come from patent publication US11680281B2, “Biosynthetic production of steviol glycosides and processes therefore” (Conagen Inc., priority 2016, dated 2023).

The conditions of data set [1]: relative to table sugar (sucrose); cited from earlier work.
Data set [2] can be described thus: Sensory evaluation (taste test) of rebaudiosides against sucrose controls. It is filed as in vivo. To be noted: rebaudioside 300 ppm in bottled water, room temperature; vs 1.0%, 3.0%, 6.0% sucrose (w/v); panel of 13 volunteer human subjects. Here is the method: A sensory evaluation of rebaudiosides was performed using sucrose as a control. The sucrose sample was purchased from Sigma-Aldrich and was used to prepared control samples at three different concentrations of 1.0%, 3.0%, and 6.0% sucrose in bottled water (w/v) at room temperature. The rebaudioside was prepared at 300 ppm for sensory evaluation by adding a corresponding mass into 1000 mL of bottled water. The mixture was stirred at room temperature and the steviol glycoside sample was then evaluated against several control sucrose samples at 1.0%, 3.0%, and 6.0% by a panel of 13 volunteer human subjects.

A short description of data set [3]: In vitro conversion of Reb D4 to Reb M by recombinant UGT polypeptides, HPLC analysis. The class given is biochemical. To be noted: 10 μg polypeptide, 1 mg/ml Reb D4, 1 mM UDP-glucose, 30° C., 30 min and 1 hr; compared with UGT76G1. Here is the method:
In this Example, to confirm the conversion of Reb D4 to rebaudioside M in vitro, the UGT76G1, CP1 and enzyme mutants were assayed using Reb D4 as the steviol glycoside substrate. The recombinant polypeptide (10 μg) was tested in a 200 μL in vitro reaction system. The reaction system contained 50 mM potassium phosphate buffer, pH 7.2, 3 mM MgCl2, 1 mg/ml steviol glycoside substrate, and 1 mM UDP-glucose. The reaction was performed at 30° C. and terminated by adding 200 μL of 1-butanol. The samples were extracted three times with 200 μL of 1-butanol. The pooled fraction was dried and dissolved in 70 μL of 80% methanol for high-performance liquid chromatography (HPLC) analysis. Rebaudioside D4 were used as substrate. HPLC analysis was performed using a Dionex UPLC ultimate 3000 system (Sunnyvale, Calif.), including a quaternary pump, a temperature controlled column compartment, an auto sampler and a UV absorbance detector. Synergi Hydro-RP column with guard column was used for the characterization of steviol glycosides. Acetonitrile in water was used for elution in HPLC analysis. The detection wavelength was 210 nm.

For the molecule `C=C1C[C@@]23CC[C@H]4[C@@](C)(CCC[C@@]4(C)C(=O)O[C@@H]4O[C@H](CO)[C@@H](O)[C@H](O)[C@H]4O)[C@@H]2CC[C@]1(O[C@@H]1O[C@H](CO)[C@@H](O)[C@H](O)[C@H]1O[C@@H]1O[C@H](CO)[C@@H](O)[C@H](O)[C@H]1O)C3` [stevioside], the “sweetness relative to sucrose (times sweeter than sucrose)” value in data set [1] is 100-150 times.
Turning to `C=C1C[C@@]23CC[C@H]4[C@@](C)(CCC[C@@]4(C)C(=O)OC4OC(CO)C(O)C(OC5OC(CO)C(O)C(O)C5O)C4OC4OC(CO)C(O)C(O)C4O)[C@@H]2CC[C@]1(O)C3` (some centres unmarked) [Reb WB2], in data set [2], the “Fold increase in sweetness relative to sucrose” value is listed as 79 fold.
Still for that read-out and setting: the result for `C=C1C[C@@]23CC[C@H]4[C@@](C)(CCC[C@@]4(C)C(=O)OC4OC(CO)C(O)C(OC5OC(CO)C(O)C(O)C5O)C4OC4OC(CO)C(O)C(O)C4O)[C@@H]2CC[C@]1(OC1OC(CO)C(O)C(O)C1O)C3` (some centres unmarked) [Reb WB1] reads 133 fold; that for `C=C1C[C@@]23CC[C@H]4[C@@](C)(CCC[C@@]4(C)C(=O)OC4OC(CO)C(O)C(OC5OC(CO)C(O)C(O)C5O)C4OC4OC(CO)C(O)C(O)C4O)[C@@H]2CC[C@]1(OC1OC(CO)C(O)C(O)C1OC1OC(CO)C(O)C(O)C1O)C3` (stereo partly drawn) [Reb D4, 13-[(2-O-β-D-glucopyranosyl-β-D-glucopyranosyl)oxy] ent-kaur-16-en-19-oic acid-[(2-O-β-D-glucopyranosyl-3-O-β-D-glucopyranosyl-β-D-glucopyranosyl) ester]], 109 fold.

B1: CP1: circular permutation of UGT76G1 enzyme (SEQ ID NO: 3) (protein)
chain: MNWQILKEILGKMIKQTKASSGVIWNSFKELEESELETVIREIPAPSFLIPLPKHLTASSSSLLDHDRTVFQWLDQQPPSSVLYVSFGSTSEVDEKDFLEIARGLVDSKQSFLWVVRPGFVKGSTWVEPLPDGFLGERGRIVKWVPQQEVLAHGAIGAFWTHSGWNSTLESVCEGVPMIFSDFGLDQPLNARYMSDVLKVGVYLENGWERGEIANAIRRVMVDEEGEYIRQNARVLKQKADVSLMKGGSSYESLESLVSYISSLENKTETTVRRRRRIILFPVPFQGHINPILQLANVLYSKGFSITIFHTNFNKPKTSNYPHFTFRFILDNDPQDERISNLPTHGPLAGMRIPIINEHGADELRRELELLMLASEEDEEVSCLITDALWYFAQSVADSLNLRRLVLMTSSLFNFHAHVSLPQFDELGYLDPDDKTRLEEQASGFPMLKVKDIKSAYS
modifications: CP1 amino acid sequence
Take B1: in data set [3], the “enzymatic activity, transfer of one glucose to Reb D4 to form Reb M” value is on record as “significantly higher enzymatic activity than UGT76G1”.
